EC50, GI50 and IC50 data for 13 compounds are collected here from ChEMBL document CHEMBL4393702, “Structure-activity relationship and synthetic methodologies of α-santonin derivatives with diverse bioactivities: A mini-review” (Eur J Med Chem, 2019).

Experiment [1] concerns the target T1, Peroxisome proliferator-activated receptor gamma (Homo sapiens, UniProt P37231).
T1 sequence (P37231 whole entry): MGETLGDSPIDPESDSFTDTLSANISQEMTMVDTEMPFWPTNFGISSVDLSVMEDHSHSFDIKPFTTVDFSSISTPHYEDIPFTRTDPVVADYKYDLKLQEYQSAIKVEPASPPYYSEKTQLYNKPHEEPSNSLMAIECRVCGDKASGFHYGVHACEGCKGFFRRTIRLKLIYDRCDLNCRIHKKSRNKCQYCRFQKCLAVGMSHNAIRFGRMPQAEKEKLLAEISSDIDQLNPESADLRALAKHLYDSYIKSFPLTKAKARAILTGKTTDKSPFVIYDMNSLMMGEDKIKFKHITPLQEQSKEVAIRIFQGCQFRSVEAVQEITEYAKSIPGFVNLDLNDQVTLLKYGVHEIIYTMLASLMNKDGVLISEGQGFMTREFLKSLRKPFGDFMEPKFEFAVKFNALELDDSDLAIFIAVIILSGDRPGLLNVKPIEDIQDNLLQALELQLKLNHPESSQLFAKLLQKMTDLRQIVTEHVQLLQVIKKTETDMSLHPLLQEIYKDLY
The experiment in a line: Agonist activity at GAL4- fused PPARgamma LBD (unknown origin) expressed in African green monkey COS7 cells by luciferase reporter gene assay. The class given is cell-based.

Experiment [2] can be described thus: Growth inhibition of human Caov cells after 48 hrs by MTT assay. Format: functional. In general terms: Tetrazolium assays rely on reduction of a dye to a coloured formazan, in cell work by metabolically active cells.
For experiment [3], the system named is Melanoma cell line. The experiment can be described thus: Growth inhibition of human Melanoma cells after 48 hrs by MTT assay. The class given is functional.
The test system of experiment [4] is P388. The experiment can be described thus: Cytotoxicity against mouse P388 cells assessed as reduction in cell viability incubated for 72 hrs by MTT assay. The note with it: P388, 72 h. Format: functional, cell-based.
Experiment [5] concerns HT-29. The experiment can be described thus: Cytotoxicity against human HT-29 cells assessed as reduction in cell viability incubated for 72 hrs by MTT assay. The class given is functional, cell-based. As to conditions: HT-29, 72 h.
The test system of experiment [6] is HONE1 cell line. The experiment can be described thus: Cytotoxicity against human HONE1 cells assessed as reduction in cell viability incubated for 72 hrs by MTT assay. The class given is functional, cell-based. As to conditions: HONE1, 72 h.
Experiment [7] addresses T2, Polyunsaturated fatty acid 5-lipoxygenase (Homo sapiens, UniProt P09917).
T2 sequence (P09917 whole entry): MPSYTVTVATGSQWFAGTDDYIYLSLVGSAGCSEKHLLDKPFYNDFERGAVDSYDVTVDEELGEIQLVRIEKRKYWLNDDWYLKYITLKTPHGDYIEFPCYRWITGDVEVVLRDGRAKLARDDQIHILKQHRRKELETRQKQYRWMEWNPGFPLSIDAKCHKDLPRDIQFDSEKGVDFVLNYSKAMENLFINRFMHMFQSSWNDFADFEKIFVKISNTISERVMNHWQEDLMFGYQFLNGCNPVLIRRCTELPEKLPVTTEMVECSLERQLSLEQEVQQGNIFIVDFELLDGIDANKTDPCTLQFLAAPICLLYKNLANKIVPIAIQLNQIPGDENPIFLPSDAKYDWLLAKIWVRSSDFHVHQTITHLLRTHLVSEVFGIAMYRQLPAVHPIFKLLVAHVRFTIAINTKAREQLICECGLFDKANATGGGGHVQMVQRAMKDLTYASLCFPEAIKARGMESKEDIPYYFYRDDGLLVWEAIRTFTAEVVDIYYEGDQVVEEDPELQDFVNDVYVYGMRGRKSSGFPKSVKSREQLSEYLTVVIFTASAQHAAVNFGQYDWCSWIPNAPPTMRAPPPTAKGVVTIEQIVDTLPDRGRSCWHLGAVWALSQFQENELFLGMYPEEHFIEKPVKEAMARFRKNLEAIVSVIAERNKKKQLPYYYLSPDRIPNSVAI
The experiment can be described thus: Inhibition of 5-LOX (unknown origin).

The target in experiment [8] is T2, Polyunsaturated fatty acid 5-lipoxygenase. The experiment can be described thus: Inhibition of 5-LOX in polymorphonuclear leucocytes (unknown origin). The class given is cell-based.
Experiment [9] is described as follows: Cytotoxicity against human […] cells assessed as reduction in cell viability after 72 hrs by Alamar Blue assay. Format: functional, cell-based. (In general: Alamar Blue is a resazurin reagent that responds to reducing activity.)
Experiment [10] deals with Trypanosoma brucei brucei. The experiment in a line: Antitrypanosomal activity against Trypanosoma brucei brucei GUTat 3.1 after 72 hrs by Alamar Blue assay. As to conditions: GUTat 3.1, 72 h. Format: functional, organism-based.
For experiment [11], the system named is THP-1. The experiment in a line: Anticancer activity against human THP1 cells assessed as reduction in cell viability incubated for 1 hr by SRB assay. The class given is functional, cell-based. The note with it: THP-1, 1 h.
Experiment [12] can be described thus: Anticancer activity against human IMR13 cells assessed as reduction in cell viability incubated for 1 hr by SRB assay. The class given is functional, cell-based. On the technique in general: The SRB assay estimates cell density from bound dye.
Experiment [13] concerns HCT-116. The experiment can be described thus: Anticancer activity against human HCT116 cells assessed as reduction in cell viability incubated for 1 hr by SRB assay. The note with it: HCT-116, 1 h. The class given is functional, cell-based.
Experiment [14] deals with A549. The experiment can be described thus: Anticancer activity against human A549 cells assessed as reduction in cell viability incubated for 1 hr by SRB assay. The note with it: A549, 1 h. The class given is functional, cell-based.

Converted amounts (≈) assume the structure as drawn.

One may read the EC50 as the concentration that produces a half-maximal response. A word on the GI50: it is the concentration at which growth is held to half of that of the control. Usually IC50 stands for the point on the concentration scale where inhibition reaches its midpoint.

As to `CCCOc1cc(C)c2c(c1C)C[C@H]([C@H](C)C(=O)O)CC2`, the midpoint of the response in [1], the EC50, lay at 15 µM.
As for `CC1=C2[C@H]3OC(=O)[C@@H](CN4CCCC(C)(C)C4)[C@@H]3CC[C@@]2(C)C=CC1=O`, the GI50 in experiment [2] stood at 2000 nM; in experiment [3] it was 3000 nM.
The corresponding values for `COc1ccc(N2CCN(C[C@@H]3C(=O)O[C@@H]4C5=C(C)C(=O)C=C[C@]5(C)CC[C@@H]34)CC2)cc1` are 3000 nM and 3000 nM.
For `C[C@@H]1C(=O)O[C@H]2C3=CC(=O)C[C@@H](O)[C@]3(C)CC[C@@H]12`, the IC50 in [4], in experiment [5] and in [6] was 3.1 to 6.9 µM in each case.
Turning to `CCCN(CCC)C[C@@H]1C(=O)O[C@@H]2C3=C(C)C(=O)C=C[C@]3(C)CC[C@@H]12`, the GI50 came out at 2000 nM in experiment [2] and 4000 nM in experiment [3].
As for `CCCOc1cc(C)c2c(c1C)C[C@H]([C@@H](C)C(=O)Nc1nccs1)CC2`, the IC50 came to 1000 nM in experiment [7] and 800 nM in [8].
Take `CCCOc1cc(C)c2c(c1C)C[C@H]([C@@H](C)C(=O)NCc1cccs1)CC2`: the concentration for half-maximal inhibition (IC50) in experiment [7] amounted to 3000 nM; in experiment [8], 8000 nM.
Take `CC1=C2[C@H]3OC(=O)[C@@H](CN4CCN(Cc5ccc6c(c5)OCO6)CC4)[C@@H]3CC[C@@]2(C)C=CC1=O`: the figures for the GI50 in [2] and in [3] were 4000 nM and 2000 nM, respectively.
In the case of `CC1=C2[C@H]3OC(=O)[C@@H](CN4CCOCC4)[C@@H]3CC[C@@]2(C)C=CC1=O`, the GI50 in [2] was found to be 4000 nM; in experiment [3], 3000 nM.
In the case of `CCCOc1cc(C)c2c(c1C)C[C@H]([C@@H](C)C(=O)Nc1ncc(C)s1)CC2`, the IC50 in experiment [7] worked out at 800 nM; in experiment [8], 1000 nM.
In the case of `C[C@@H]1C(=O)O[C@H]2[C@H]1CC[C@@]1(C)CCC(=O)[C@](C)(OO)[C@@H]21`, the half-maximal effective concentration (EC50) in experiment [9] worked out at 64.2 µg/mL (≈ 227 µM); in experiment [10], 0.4 µg/mL (≈ 1.42 µM).
`CCCOc1cc(C)c2c(c1C)C[C@H]([C@@H](C)C(=O)Nc1ccccn1)CC2`: the IC50 came to 6000 nM in experiment [7] and 900 nM in experiment [8].
Regarding `CC1=C2C(=O)[C@H]([C@@H](C)C(=O)OCc3ccccc3)CC[C@@]2(C)C=CC1Cc1ccccc1` (stereo partly drawn), the half-maximal inhibitory concentration (IC50) was 510 nM in experiment [11], 230 nM in experiment [12], 600 nM in experiment [13] and 300 nM in [14].
